# pIC50: −log10 of the molar value.
# Columns and labels:
# [1] = system: spermidine/spermine N^1-acetyltransferase (SSAT); assay: SSAT enzymatic activity in SW480 cells; assay type: cell-based, human
# Experimental: (§1) SW480 cells were incubated without or with phospho-sulindac I (P-S) for up to 24 h and SSAT activity was determined at each time point by determining the amount of labelled N1-acetylspermidine synthesized from [^14C]acetyl-CoA and unlabeled spermidine.
# (§2) The effect of phospho-sulindac I on polyamines is mediated, at least in part, by activation of SSAT by phospho-sulindac I. It is known that conventional sulindac induces SSAT activity (Babbar et al., Cyclooxygenase-independent induction of apoptosis by sulindac sulfone is mediated by polyamines in colon cancer. J Biol Chem 2003; 278(48):47762-75.). Incubation of HT-29 and SW480 cells with 85 μM phospho-sulindac I for 24 h leads to a 3- and 4.4-fold increase of SSAT activity (P<0.05 versus control), respectively. On the other hand, incubation with sulindac led to a 1.5 and 2.5-fold increase of SSAT activity (P<0.05 versus control) in HT-29 and SW480 cells, respectively.
# APC^Min/+ mice = assay: APC Min/+ mice study of intestinal tumors; assay type: in vivo; conditions: 50 mg/kg/day gavage, 4 weeks
# From the text: APC^Min/+ mice study: Min mice have a truncating mutation in the Apc gene that predisposes them to the development of gastrointestinal tumors in the small intestine and colon (Lipkin M, Yang K, Edelmann W, et al. Preclinical mouse models for cancer chemoprevention studies. Ann N Y Acad Sci 1999; 889:14-9.). In many important ways, this model system represents a useful (and extensively utilized) experimental system that recapitulates the relevant steps of colon carcinogenesis.
# Eleven week-old male C57BL/6J APC^Min/+ mice divided into […] groups of 10 mice/group were treated for 4 weeks via gavage administration as follows: group 1 was treated with vehicle (corn oil); and group 2 was treated with phospho-sulindac I 50 mg/kg/day.
# HT-29 cells = assay: Cell cycle analysis, DFMO and phospho-sulindac I, 48 h; assay type: cell-based, human; conditions: DFMO 5 mM, phospho-sulindac I 40 μM
# Experimental: A—Left panel: Cell viability was determined in HT-29 (full bars) and SW-480 (empty bars) cells after 48 h of incubation with 5 mM DFMO, 40 μM phospho-sulindac (P-S) or simultaneous combination of DFMO and P-S. Data are expressed as percentage of control cells (cells incubated only with DMSO). […] Right panel: In this isobologram the additivity line connects the IC50 value of each compound used alone. A and B represent two different dose pairs of each compound (their respective concentrations are shown in parentheses). The location of both A and B below the additivity line signifies synergy. […] DNA content was determined from propidium iodide (PI) fluorescence. C—Apoptosis and necrosis were determined by combined staining with annexin V and PI and determining fluorescence intensity. The percentages of apoptotic cells were determined using the dual staining with annexin V and propidium iodide and are indicated in each quadrant: left bottom quadrant, viable cells (annexin V-negative/PI-negative); right bottom quadrant, early apoptotic cells (annexin V-positive/PI-negative); right upper quadrant, late apoptotic cells (annexin V-positive/PI-positive); left upper quadrant, necrotic cells (annexin V-negative, PI-positive). […]
# [2] = system: spermidine/spermine N^1-acetyltransferase (SSAT); assay: SSAT enzymatic activity in HT-29 cells; assay type: cell-based, human; conditions: HT-29, 24 h; phospho-sulindac I 85 μM; P<0.05 versus control
# Experimental: as §1, §2
# [3] = assay type: in vivo; conditions: 5 days oral gavage
# Experimental: Phospho-sulindac I lacked gastrointestinal toxicity in mice; gastrointestinal toxicity is the major side effect of sulindac as well as of the entire class of NSAIDs. We evaluated in mice the potential toxicity of phospho-sulindac I. Three groups, each consisting of 8 female C57BL/6J+/+mice 6 wks of age, were treated for 5 days by oral gavage with equimolar amounts of phospho-sulindac I (317 mg/kg/d) or conventional sulindac (200 mg/kg/day) or vehicle. Mice were weighed at time 0 and on days 3 and 5. Mice surviving to the end of the study were euthanized and necropsied.
# The stomachs of sulindac-treated animals were larger than those of the other two groups and in some the liver appeared hyperemic.
# MDA-MB231 = assay: Cell viability (MTT) assay, 24-h IC50, MDA-MB231; assay type: cell-based, human; conditions: Homo sapiens, MDA-MB-231, 24 h, read-out: 24-h IC50
structure (smiles),measurement,setting,value
CCOP(=O)(OCC)OCCCCOC(=O)CC1=C(C)/C(=C/c2ccc([S+](C)[O-])cc2)c2ccc(F)cc21 (stereo not shown) [Phospho-sulindac I],induction of SSAT compared to vehicle-treated controls,"[1]; SW480, 85 μM, 12 h of incubation",4 fold
same,maximum increase of SSAT,"[1]; SW480, 85 μM, 18 h of incubation",5.5 fold
same,increase of SSAT activity,"[1]; SW480, 24 h, phospho-sulindac I 85 μM, P<0.05 versus control",4.4 fold
same,signs of toxicity in Min mice,APC^Min/+ mice,without any overt signs of toxicity
same,decreased the number of tumors in the small intestine,"APC^Min/+ mice; vs vehicle, p<0.002",57.2%
same,reduction of tumors in the colon,"APC^Min/+ mice; vs vehicle, p<0.02",61.8%
same,number of colon tumors,APC^Min/+ mice; vehicle 1.6±0.8,0.6±0.5
same,number of intestinal tumors,APC^Min/+ mice; vehicle 33.6±8.7,19.4±12.0
same,G1 population arrest,HT-29 cells,75%
same,S phase,HT-29 cells,13.6%
same,increase of SSAT activity,[2],3 fold
same,"inspection of the heart, lungs, spleen, kidneys and liver",[3]; 317 mg/kg/d,no abnormalities
same,gastrointestinal or other toxicity (necropsy),"[3]; phospho-sulindac I 317 mg/kg/d, sulindac 200 mg/kg/day",no evidence of gastrointestinal or other toxicity
same,mortality,"[3]; phospho-sulindac I 317 mg/kg/d, sulindac 200 mg/kg/day, 8 mice/group",0%
same,body weight at end of study,"[3]; phospho-sulindac I 317 mg/kg/d, sulindac 200 mg/kg/day, start 16.3±1.2, mean±SD",15.7 ± 1.2 g
same,pIC50,MDA-MB231,4.77

# — patent US8236820B2, “Anti-inflammatory compounds and uses thereof” (priority 2007, dated 2012)
